Test results taken from publication PMC6459586, “Structure-Based Design of MptpB Inhibitors That Reduce Multidrug-Resistant Mycobacterium tuberculosis Survival and Infection Burden in Vivo” (Journal of Medicinal Chemistry, 2018).
pIC50: −log10 of the molar value. Entries after “also recorded” stand apart in the source; their conditions may differ. Read-outs that look alike come from different tables or passages of the source.

Tests used:
[1] = guinea pig, 50 or 100 mg/kg orally once daily for 7 days
[2] = tested on: BCG in mouse macrophages (J774); assay type: cell-based, Mycobacterium bovis Bacille Calmette-Guerin
[3] = tested on: PI3P on M. tuberculosis phagosomes (RAW264.7 macrophages); assay type: cell-based
hVHR = target: T1, hVHR (Homo sapiens, UniProt P51452); assay: biochemical; conditions: read-out: IC50 hVHR (Supplementary Table 1)
T1 construct: GST (N, cleaved yes); made in house; host or cells: E. coli
T1 sequence (P51452 whole entry): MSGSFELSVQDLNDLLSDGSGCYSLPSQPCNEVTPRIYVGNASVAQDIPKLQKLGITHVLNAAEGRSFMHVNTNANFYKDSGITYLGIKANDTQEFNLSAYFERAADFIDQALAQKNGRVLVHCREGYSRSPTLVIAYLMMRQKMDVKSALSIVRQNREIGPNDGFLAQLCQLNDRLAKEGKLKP

BCG = assay type: cell-based, Mycobacterium bovis Bacille Calmette-Guerin
[4] = Pharmacokinetic evaluation in guinea pigs; assay type: in vivo; conditions: male, Durkin Hartley, guinea pig, in vivo
Procedure: Guinea pig males (Durkin Hartley) were used to evaluate the pharmacokinetics and tissue distribution of compounds. The route of administration was either intraperitoneal (ip) or oral (po) with dosage varying from 3.5 to 8 mg kg^–1 (op) and 2.5–4 mg kg^–1 (ip). In each case 4 samples were collected per time point at 0.1, 0.5, 2, 4, and 8 h post dose for ip and 0.25, 0.5, 2, 4, and 8 h post dose for po. Compounds were prepared in 10% DMSO, 5% Cremaphor, and 85% physiological saline for IP administration or 0.5% (v/v) Tween 80, 99.5% (v/v) 0.5% methylcellulose for oral administration. Tissue samples (n = 4) from lung, liver, and kidney were collected at the end of the study and snap frozen prior to bioanalysis.

M. tuberculosis H37Rv = assay: Acute guinea pig model of TB infection; assay type: in vivo; conditions: 28 days of treatment, oral daily, 13 100 mg/kg, RIF 50 mg/kg
physchem = assay type: physicochemical; conditions: pH 7.4
Procedure: Experimental Methods (ADME determinations).
ADME determinations for Compound 13 (data kindly supplied by LifeArc).
LogD measurements were carried out using the shake flask method. Compound was diluted from a 10 mM DMSO stock solution into an eppendorf containing equal amounts of octanol and phosphate buffered saline (PBS) to give a final concentration of 100 µM. The tubes were shaken for 12 hours, centrifuged at 10000 rpm for 10 minutes and samples taken from the octanol and PBS layers. The samples from both layers were analysed in triplicate by LC-MS/MS (Aglient Technologies G6410 series, triple quadrupole with MM-ESI ion source) using optimised multiple reaction monitoring (MRM) scans and a standard column gradient on an Acquity UPLC BEH C8 1.7 µm column, running acetonitrile and water with 0.05% acetic acid as the mobile phase. The ratios of areas of the peaks were used to calculate the Log D in accordance with the equation:
Log D = Log10(Area-TL/Area BL)
PBS pH7.4 in a filtration plate at a target concentration of 200 µM giving a final solution composition of 98:2 PBS:DMSO. […] The UV absorbance for these solutions was read across 230-400 nM at 1 nM intervals using a T ECAN Safire II plate reader and a suitable UV wavelength chosen around the UV maximum of each compound. […]

M. tuberculosis = assay type: in vivo, guinea pig
[5] = tested on: M. tuberculosis H37Rv in human macrophages (THP1); assay type: cell-based
hPTP1B = target: T2, hPTP1B (Homo sapiens, UniProt P18031); assay: biochemical; conditions: read-out: IC50 hPTP1B (Supplementary Table 1)
T2 construct: GST (N, cleaved yes); made in house; host or cells: E. coli
T2 sequence (P18031 whole entry): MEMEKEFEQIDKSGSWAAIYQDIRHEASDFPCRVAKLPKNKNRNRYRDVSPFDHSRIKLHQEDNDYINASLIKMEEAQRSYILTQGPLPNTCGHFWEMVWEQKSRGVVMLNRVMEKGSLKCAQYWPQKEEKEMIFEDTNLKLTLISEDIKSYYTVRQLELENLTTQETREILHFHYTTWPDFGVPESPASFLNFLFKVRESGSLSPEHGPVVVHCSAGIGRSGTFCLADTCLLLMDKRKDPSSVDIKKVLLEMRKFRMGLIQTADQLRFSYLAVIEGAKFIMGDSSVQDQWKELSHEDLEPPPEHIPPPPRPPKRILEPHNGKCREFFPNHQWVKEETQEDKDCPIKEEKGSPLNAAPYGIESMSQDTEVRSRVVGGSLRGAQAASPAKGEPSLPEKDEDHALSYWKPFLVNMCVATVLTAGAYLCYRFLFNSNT

[6] = tested on: MDR strain (Beijing-W) in human macrophages (THP1); assay type: cell-based, M. tuberculosis
[7] = chronic model, 28 days of treatment from day 28, oral daily, 13 100 mg/kg, RIF 50 mg/kg
[8] = chronic model, 28 days of treatment from day 28, oral daily, 13 100 mg/kg, RIF 50 mg/kg, listed as Cpd 13

Cc1onc(C(=O)O)c1-c1cccc(-c2cc(Cl)c(O)c(Cl)c2)c1 [Compound 13, 4-(3′,5′-Dichloro-4′-hydroxy-3-biphenyl)-5-methylisoxazole-3-carboxylic Acid]
adverse drug effects (tolerability) [1]: no adverse drug effects | weight increases during the tolerability trial [1]: > 5% | reduction in intracellular mycobacterial (BCG) burden [2]: up to 84% | duration of the peak of PI3P on phagosomes [3]: up to 12 min | pIC50 (hVHR): < 4.00 | effect on extracellular growth of BCG (BCG): does not affect extracellular bacterial growth; also recorded: not affected | half-life ([4]; ip, 4 mg/kg, IP, dose mg/kg: 13 4, 5 2.5, 8 1.25, 9 2.5): 1.4 h | half-life ([4]; po, 8 mg/kg, oral, dose mg/kg: 13 8, 5 5, 8 3.5, 9 5): 5 h | Lungs infection burden, average (M. tuberculosis H37Rv): 5.9 log CFU | Lungs log reduction relative to vehicle (M. tuberculosis H37Rv): 0.9 log | Spleen infection burden, average (M. tuberculosis H37Rv): 5.6 log CFU | Spleen log reduction relative to vehicle (M. tuberculosis H37Rv): 0 log | logD (physchem): 4 | Lungs infection burden, average (M. tuberculosis; [7]): 4.7 log CFU | Lungs log reduction relative to vehicle (M. tuberculosis; [7]): at least 1 log | Spleen infection burden, average (M. tuberculosis; [7]): 4.2 log CFU | Spleen log reduction relative to vehicle (M. tuberculosis; [7]): at least 1 log | Lungs log reduction relative to vehicle (M. tuberculosis; [8]): 1.0 log | Spleen log reduction relative to vehicle (M. tuberculosis; [8]): 1.0 log | Lungs weight % change relative to Vehicle (M. tuberculosis; guinea pig, in vivo): -19% | Lungs weight, average (M. tuberculosis; guinea pig, in vivo): 4.4 g | Spleen weight % change relative to Vehicle (M. tuberculosis; guinea pig, in vivo): -19% | Spleen weight, average (M. tuberculosis; guinea pig, in vivo): 2.1 g | histopathology of lungs and spleens (M. tuberculosis; guinea pig, in vivo, 100 mg/kg): improvement in the pathology | reduction of intracellular mycobacterial burden, H37Rv [5]: up to 63% | pIC50 (hPTP1B): < 4.00 | reduction of intracellular mycobacterial burden, MDR strain (Beijing-W) [6]: up to 74%
